Columns and labels:
Type in all cases: in vivo
[1] = system: field violet (Viola arvensis); assay: Test D pre-/postemergence: field violet
Excerpt: (§1) Seeds of plant species selected from bluegrass (annual bluegrass, Poa annua), blackgrass (Alopecurus myosuroides), canarygrass (Phalaris minor), chickweed (common chickweed, Stellaria media), galium (catchweed bedstraw, Galium aparine), bromegrass, downy (downy bromegrass, Bromus tectorum), field poppy (Papaver rhoeas), field violet (Viola arvensis), foxtail, green (green foxtail, Setaria viridis), deadnettle (henbit deadnettle, Lamium amplexicaule), ryegrass, Italian (Italian ryegrass, Lolium multiflorum), kochia (Kochia scoparia), lambsquarters (Chenopodium album), oilseed rape (Brassica napus), pigweed (Amaranthus retroflexus), Russian thistle (Salsola iberica), chamomile (scentless chamomile, Matricaria inodora), speedwell (bird's-eye speedwell, Veronica persica), barley, spring (spring barley, Hordeum vulgare), wheat, spring (spring wheat, Triticum aestivum), buckwheat, wild (wild buckwheat, Polygonum convolvulus), mustard, wild (wild mustard, Sinapis arvensis), oat, wild (wild oat, Avena fatua), radish, wild (wild radish, Raphanus raphanistrum), windgrass (Apera spica-venti), barley, winter (winter barley, Hordeum vulgare), and wheat, winter (winter wheat, Triticum aestivum) were planted into a silt loam soil and treated preemergence with test chemicals formulated in a non-phytotoxic solvent mixture which included a surfactant. At the same time, these same crop and weed species were planted in pots containing the planting medium comprising spaghnum peat moss, vermiculite, wetting agent and starter nutrients and treated with postemergence applications of the test chemicals formulated in the same manner. Plants ranged in height from 2 to 18 cm (1- to 4-leaf stage).
(§2) Treated plants and controls were maintained in a controlled growth environment for 14 to 21 days after which time all species were compared to controls and visually evaluated. Plant response ratings, summarized in Table D, are based on a scale of 0 to 100 where 0 is no effect and 100 is complete control. A dash (-) response means no test result.

[2] = system: chickweed (common chickweed, Stellaria media); assay: Test D pre-/postemergence: chickweed
Excerpt: as §1, §2

[3] = system: field poppy (Papaver rhoeas); assay: Test D pre-/postemergence: field poppy
Excerpt: as §1, §2

[4] = system: oat, wild (wild oat, Avena fatua); assay: Test D pre-/postemergence: oat, wild
Excerpt: as §1, §2

[5] = system: buckwheat, wild (wild buckwheat, Polygonum convolvulus); assay: Test D pre-/postemergence: buckwheat, wild
Excerpt: as §1, §2

[6] = Postemergence, 31 g ai/ha, scale 0 to 100 (0 no effect, 100 complete control)
[7] = Postemergence, 62 g ai/ha, scale 0 to 100 (0 no effect, 100 complete control)
[8] = Postemergence, 125 g ai/ha, scale 0 to 100, 0 no effect, 100 complete control
[9] = Postemergence, 250 g ai/ha, scale 0 to 100 (0 no effect, 100 complete control)
[10] = Preemergence, 31 g ai/ha, scale 0 to 100, 0 no effect, 100 complete control
[11] = Preemergence, 62 g ai/ha, scale 0 to 100
[12] = Preemergence, 125 g ai/ha, scale 0 to 100
[13] = Preemergence, 250 g ai/ha, scale 0 to 100
[14] = Postemergence, 16 g ai/ha, scale 0 to 100
[15] = Preemergence, 16 g ai/ha, scale 0 to 100, 0 no effect, 100 complete control

## FC(F)(F)COc1nn(-c2ccc(C(F)(F)F)cc2)nc1Cc1ccnc(C(F)(F)F)c1 [Compound 14, 4-[[5-(2,2,2-trifluoroethoxy)-2-[4-(trifluoromethyl)phenyl]-2H-1,2,3-triazol-4-yl]methyl]-2-(trifluoromethyl)pyridine]
[1]; [6]
  Plant response rating: Field Violet: 100
[1]; [7]
  Plant response rating: Field Violet: 100
[1]; [8]
  Plant response rating: Field Violet: 100
[1]; [9]
  Plant response rating: Field Violet: 100
[1]; [10]
  Plant response rating, Field Violet: 75
[1]; [11]
  Plant response rating, Field Violet: 90
[1]; [12]
  Plant response rating, Field Violet: 95
[1]; [13]
  Plant response rating, Field Violet: 95
[2]; [6]
  Plant response rating: Chickweed: 50
[2]; [7]
  Plant response rating: Chickweed: 80
[2]; [8]
  Plant response rating: Chickweed: 90
[2]; [9]
  Plant response rating: Chickweed: 98
[2]; [10]
  Plant response rating, Chickweed: 75
[2]; [11]
  Plant response rating, Chickweed: 100
[2]; [12]
  Plant response rating, Chickweed: 100
[2]; [13]
  Plant response rating, Chickweed: 100
[3]; [6]
  Plant response rating: Field Poppy: 100
[3]; [7]
  Plant response rating: Field Poppy: 100
[3]; [8]
  Plant response rating: Field Poppy: 100
[3]; [9]
  Plant response rating: Field Poppy: 100
[4]; [6]
  Plant response rating: Oat, Wild: 15
[4]; [7]
  Plant response rating: Oat, Wild: 25
[4]; [8]
  Plant response rating: Oat, Wild: 40
[4]; [9]
  Plant response rating: Oat, Wild: 55
[4]; [10]
  Plant response rating, Oat, Wild: 0
[4]; [11]
  Plant response rating, Oat, Wild: 20
[4]; [12]
  Plant response rating, Oat, Wild: 20
[4]; [13]
  Plant response rating, Oat, Wild: 50
[5]; [6]
  Plant response rating: Buckwheat, Wild: 0
[5]; [7]
  Plant response rating: Buckwheat, Wild: 40
[5]; [8]
  Plant response rating: Buckwheat, Wild: 60
[5]; [9]
  Plant response rating: Buckwheat, Wild: 100
[5]; [10]
  Plant response rating, Buckwheat, Wild: 0
[5]; [11]
  Plant response rating, Buckwheat, Wild: 30
[5]; [12]
  Plant response rating, Buckwheat, Wild: 35
[5]; [13]
  Plant response rating, Buckwheat, Wild: 40

## COc1nn(-c2ccc(C(F)(F)F)cc2)nc1Cc1ccnc(C(F)(F)F)c1 [Compound 15, 4-[[5-methoxy-2-[4-(trifluoromethyl)phenyl]-2H-1,2,3-triazol-4-yl]methyl]-2-(trifluoromethyl)pyridine]
[1]; [6]
  Plant response rating: Field Violet: 100
[1]; [7]
  Plant response rating: Field Violet: 100
[1]; [8]
  Plant response rating: Field Violet: 100
[1]; [9]
  Plant response rating: Field Violet: 100
[1]; [14]
  Plant response rating, Field Violet: 80
[2]; [6]
  Plant response rating: Chickweed: 100
[2]; [7]
  Plant response rating: Chickweed: 100
[2]; [8]
  Plant response rating: Chickweed: 100
[2]; [9]
  Plant response rating: Chickweed: 100
[2]; [14]
  Plant response rating, Chickweed: 40
[2]; [10]
  Plant response rating, Chickweed: 100
[2]; [11]
  Plant response rating, Chickweed: 100
[2]; [12]
  Plant response rating, Chickweed: 100
[2]; [13]
  Plant response rating, Chickweed: 100
[3]; [6]
  Plant response rating: Field Poppy: 100
[3]; [7]
  Plant response rating: Field Poppy: 100
[3]; [8]
  Plant response rating: Field Poppy: 100
[3]; [9]
  Plant response rating: Field Poppy: 100
[3]; [14]
  Plant response rating, Field Poppy: 100
[4]; [6]
  Plant response rating: Oat, Wild: 10
[4]; [7]
  Plant response rating: Oat, Wild: 10
[4]; [8]
  Plant response rating: Oat, Wild: 30
[4]; [9]
  Plant response rating: Oat, Wild: 40
[4]; [14]
  Plant response rating, Oat, Wild: 10
[4]; [11]
  Plant response rating, Oat, Wild: 15
[4]; [12]
  Plant response rating, Oat, Wild: 40
[4]; [13]
  Plant response rating, Oat, Wild: 100
[5]; [6]
  Plant response rating: Buckwheat, Wild: 30
[5]; [7]
  Plant response rating: Buckwheat, Wild: 30
[5]; [8]
  Plant response rating: Buckwheat, Wild: 70
[5]; [9]
  Plant response rating: Buckwheat, Wild: 100
[5]; [14]
  Plant response rating, Buckwheat, Wild: 0
[5]; [10]
  Plant response rating, Buckwheat, Wild: 0
[5]; [11]
  Plant response rating, Buckwheat, Wild: 100
[5]; [12]
  Plant response rating, Buckwheat, Wild: 100
[5]; [13]
  Plant response rating, Buckwheat, Wild: 100

## Cc1nn(-c2ccc(C(F)(F)F)cn2)nc1Oc1ccnc(C(F)(F)F)c1 [Compound 23]
[1]; [6]
  Plant response rating: Field Violet: 40
[1]; [7]
  Plant response rating: Field Violet: 50
[1]; [8]
  Plant response rating: Field Violet: 70
[1]; [9]
  Plant response rating: Field Violet: 80
[1]; [14]
  Plant response rating, Field Violet: 20
[2]; [6]
  Plant response rating: Chickweed: 10
[2]; [7]
  Plant response rating: Chickweed: 15
[2]; [8]
  Plant response rating: Chickweed: 30
[2]; [9]
  Plant response rating: Chickweed: 90
[2]; [14]
  Plant response rating, Chickweed: 5
[3]; [6]
  Plant response rating: Field Poppy: 70
[3]; [7]
  Plant response rating: Field Poppy: 90
[3]; [8]
  Plant response rating: Field Poppy: 100
[3]; [9]
  Plant response rating: Field Poppy: 100
[3]; [14]
  Plant response rating, Field Poppy: 75
[4]; [6]
  Plant response rating: Oat, Wild: 10
[4]; [7]
  Plant response rating: Oat, Wild: 10
[4]; [8]
  Plant response rating: Oat, Wild: 15
[4]; [9]
  Plant response rating: Oat, Wild: 20
[4]; [14]
  Plant response rating, Oat, Wild: 10
[5]; [6]
  Plant response rating: Buckwheat, Wild: 25
[5]; [7]
  Plant response rating: Buckwheat, Wild: 35
[5]; [8]
  Plant response rating: Buckwheat, Wild: 40
[5]; [9]
  Plant response rating: Buckwheat, Wild: 75
[5]; [14]
  Plant response rating, Buckwheat, Wild: 20

## Cc1nn(-c2ccc(C(F)(F)F)cn2)nc1Cc1cccc(C(F)(F)F)c1 [Compound 106]
[1]; [6]
  Plant response rating: Field Violet: 70
[1]; [7]
  Plant response rating: Field Violet: 70
[1]; [8]
  Plant response rating: Field Violet: 85
[1]; [9]
  Plant response rating: Field Violet: 100
[1]; [14]
  Plant response rating, Field Violet: 70
[2]; [6]
  Plant response rating: Chickweed: 90
[2]; [7]
  Plant response rating: Chickweed: 90
[2]; [8]
  Plant response rating: Chickweed: 90
[2]; [9]
  Plant response rating: Chickweed: 90
[2]; [14]
  Plant response rating, Chickweed: 20
[2]; [10]
  Plant response rating, Chickweed: 100
[2]; [11]
  Plant response rating, Chickweed: 100
[2]; [12]
  Plant response rating, Chickweed: 100
[2]; [13]
  Plant response rating, Chickweed: 100
[3]; [6]
  Plant response rating: Field Poppy: 100
[3]; [7]
  Plant response rating: Field Poppy: 100
[3]; [8]
  Plant response rating: Field Poppy: 100
[3]; [9]
  Plant response rating: Field Poppy: 100
[3]; [14]
  Plant response rating, Field Poppy: 100
[4]; [6]
  Plant response rating: Oat, Wild: 5
[4]; [7]
  Plant response rating: Oat, Wild: 5
[4]; [8]
  Plant response rating: Oat, Wild: 5
[4]; [9]
  Plant response rating: Oat, Wild: 20
[4]; [14]
  Plant response rating, Oat, Wild: 0
[4]; [10]
  Plant response rating, Oat, Wild: 0
[4]; [11]
  Plant response rating, Oat, Wild: 0
[4]; [12]
  Plant response rating, Oat, Wild: 10
[4]; [13]
  Plant response rating, Oat, Wild: 10
[5]; [6]
  Plant response rating: Buckwheat, Wild: 0
[5]; [7]
  Plant response rating: Buckwheat, Wild: 10
[5]; [8]
  Plant response rating: Buckwheat, Wild: 10
[5]; [9]
  Plant response rating: Buckwheat, Wild: 100
[5]; [14]
  Plant response rating, Buckwheat, Wild: 0
[5]; [10]
  Plant response rating, Buckwheat, Wild: 50
[5]; [11]
  Plant response rating, Buckwheat, Wild: 100
[5]; [12]
  Plant response rating, Buckwheat, Wild: 100
[5]; [13]
  Plant response rating, Buckwheat, Wild: 100

## Cc1nn(-c2ccc(C(F)(F)F)cc2)nc1Oc1ccnc(C(F)(F)F)c1 [Compound 120]
[1]; [6]
  Plant response rating: Field Violet: 70
[1]; [7]
  Plant response rating: Field Violet: 100
[1]; [8]
  Plant response rating: Field Violet: 100
[1]; [9]
  Plant response rating: Field Violet: 100
[1]; [14]
  Plant response rating, Field Violet: 70
[1]; [15]
  Plant response rating, Field Violet: 75
[1]; [10]
  Plant response rating, Field Violet: 90
[1]; [11]
  Plant response rating, Field Violet: 95
[1]; [12]
  Plant response rating, Field Violet: 100
[1]; [13]
  Plant response rating, Field Violet: 100
[2]; [6]
  Plant response rating: Chickweed: 85
[2]; [7]
  Plant response rating: Chickweed: 98
[2]; [8]
  Plant response rating: Chickweed: 100
[2]; [9]
  Plant response rating: Chickweed: 100
[2]; [14]
  Plant response rating, Chickweed: 75
[2]; [15]
  Plant response rating, Chickweed: 20
[2]; [10]
  Plant response rating, Chickweed: 90
[2]; [11]
  Plant response rating, Chickweed: 90
[2]; [12]
  Plant response rating, Chickweed: 100
[2]; [13]
  Plant response rating, Chickweed: 100
[3]; [6]
  Plant response rating: Field Poppy: 100
[3]; [7]
  Plant response rating: Field Poppy: 100
[3]; [8]
  Plant response rating: Field Poppy: 100
[3]; [9]
  Plant response rating: Field Poppy: 100
[3]; [14]
  Plant response rating, Field Poppy: 100
[3]; [15]
  Plant response rating, Field Poppy: 0
[3]; [10]
  Plant response rating, Field Poppy: 80
[3]; [11]
  Plant response rating, Field Poppy: 80
[3]; [12]
  Plant response rating, Field Poppy: 100
[3]; [13]
  Plant response rating, Field Poppy: 100
[4]; [6]
  Plant response rating: Oat, Wild: 10
[4]; [7]
  Plant response rating: Oat, Wild: 20
[4]; [8]
  Plant response rating: Oat, Wild: 35
[4]; [9]
  Plant response rating: Oat, Wild: 70
[4]; [14]
  Plant response rating, Oat, Wild: 10
[4]; [15]
  Plant response rating, Oat, Wild: 0
[4]; [10]
  Plant response rating, Oat, Wild: 5
[4]; [11]
  Plant response rating, Oat, Wild: 25
[4]; [12]
  Plant response rating, Oat, Wild: 55
[4]; [13]
  Plant response rating, Oat, Wild: 100
[5]; [6]
  Plant response rating: Buckwheat, Wild: 75
[5]; [7]
  Plant response rating: Buckwheat, Wild: 85
[5]; [8]
  Plant response rating: Buckwheat, Wild: 95
[5]; [9]
  Plant response rating: Buckwheat, Wild: 98
[5]; [14]
  Plant response rating, Buckwheat, Wild: 50
[5]; [11]
  Plant response rating, Buckwheat, Wild: 10
[5]; [12]
  Plant response rating, Buckwheat, Wild: 70
[5]; [13]
  Plant response rating, Buckwheat, Wild: 100
